According to US12527755B2, “Formulations containing acetaminophen and sulfoalkyl ether cyclodextrin” (CyDex Pharmaceuticals, Inc., priority 2016, dated 2026):
Converted amounts (≈) assume the structure as drawn.

Assay: physchem
Conditions: for solubility: pH 7, aqueous buffer, thermodynamic from solid
Description: The acetaminophen solubility was measured at 25° C. and 5° C.

Structure (SMILES): CC(=O)Nc1ccc(O)cc1 [acetaminophen, N-acetyl-p-aminophenol]
- solubility (5 °C): ~8.86 mg/mL (≈ 58.6 mM)
- solubility (25 °C): ~16 mg/mL (≈ 106 mM)
- CAPTISOL® concentration with which a 10 mg/ml acetaminophen solution can be made (pH 7): less than 0.05 M
